Measurements published in patent publication US9067905B2, “Sulphone compounds and methods of making and using same” (Zafgen, Inc., priority 2009, dated 2015).
Structures can show the parent of a compound that is named as a salt.

biological target: T1, recombinant human MetAP2 (Homo sapiens, UniProt P50579); test: Inhibition of recombinant human MetAP2 activity (Amplex red fluorescence assay); assay type: biochemical; settings: manganese Flag-MetAP2, 0.75 mM Methionine-Alanine-Serine substrate, 30 minutes at 25° C., pH 7.5, 1% DMSO
T1 construct: Flag; made in house; host or cells: Sf9 insect cells
Method: Compounds are tested for their capacity to inhibit recombinant human MetAP2 activity using the following assay.
Human recombinant Flag-MetAP2 expressed in Sf9 cells followed by affinity purification and EDTA treatment to remove endogenous active site cation is dialysed against MnCl2 to produce the manganese enzyme used in the assay. The assay is carried out for 30 minutes at 25° C. in 50 mM HEPES buffer containing 100 mM NaCl, pH 7.5 the presence of 0.75 mM Methionine-Alanine-Serine (MAS) substrate and 50 μg/ml amino acid oxidase using a dilution of purified MetAP2 giving approximately 50,000 RFU control activity. Cleavage of the substrate by MetAP2 and oxidation of free methionine by amino acid oxidase is detected and quantified using fluorescence generated by Amplex red (10-acetyl-3,7-dihydroxyphenoxazine) in combination with horseradish peroxidase which detects H2O2 released during the oxidation step. The fluorescent signal is detected using a multiwell fluorimeter. Compounds are diluted in DMSO prior to addition to assay buffer, the final DMSO concentration in the assay being 1%.
The IC50 is defined as the concentration at which a given compound achieves 50% inhibition of control. IC50 values are calculated using the XLfit software package (version 2.0.5).

T1 sequence (P50579 whole entry): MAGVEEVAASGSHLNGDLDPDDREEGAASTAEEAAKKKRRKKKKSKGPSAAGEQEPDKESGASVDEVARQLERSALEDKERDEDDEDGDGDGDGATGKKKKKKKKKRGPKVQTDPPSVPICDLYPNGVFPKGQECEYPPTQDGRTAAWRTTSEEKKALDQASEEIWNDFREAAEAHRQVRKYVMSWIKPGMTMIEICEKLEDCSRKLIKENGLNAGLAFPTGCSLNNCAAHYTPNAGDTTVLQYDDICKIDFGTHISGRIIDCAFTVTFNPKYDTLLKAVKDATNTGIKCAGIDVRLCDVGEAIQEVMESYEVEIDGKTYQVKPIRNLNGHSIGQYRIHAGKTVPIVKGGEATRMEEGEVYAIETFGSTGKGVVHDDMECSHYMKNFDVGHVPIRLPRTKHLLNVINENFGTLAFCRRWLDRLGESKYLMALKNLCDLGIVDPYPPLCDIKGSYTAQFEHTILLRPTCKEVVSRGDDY

| SMILES | IC50 [nM] |
| --- | --- |
| NC(=O)COc1c(-c2ccoc2)ccc(CS(=O)(=O)c2ccccc2)c1C(=O)O [6-(Benzenesulphonylmethyl)-2-(carbamoylmethoxy)-3-(furan-3-yl)-benzoic acid] | 200 to 2000 |
| N#CCOc1c(-c2ccoc2)ccc(CS(=O)(=O)c2ccccc2)c1C(=O)O [6-(Benzenesulphonylmethyl)-2-(cyanomethoxy)-3-(furan-3-yl)benzoic acid] | < 200 |
| N#CCNc1c(-c2ccoc2)ccc(CS(=O)(=O)c2ccccc2)c1C(=O)O [6-(Benzenesulphonylmethyl)-2-(cyanomethylamino)-3-(furan-3-yl)benzoic acid] | < 200 |
| CCOc1c(-c2ccoc2)ccc(CS(=O)(=O)c2ccccc2)c1C(=O)O [6-(Benzenesulphonylmethyl)-2-ethoxy-3-(furan-3-yl)benzoic acid] | 200 to 2000 |
| CCc1c(-c2ccoc2)ccc(CS(=O)(=O)c2ccccc2)c1C(=O)O [6-(Benzenesulphonylmethyl)-2-ethyl-3-(furan-3-yl)benzoic acid] | 200 to 2000 |
| COc1c(-c2cccnc2)ccc(CS(=O)(=O)c2ccccc2)c1C(=O)O [6-(Benzenesulphonylmethyl)-2-methoxy-3-(3-pyridyl)benzoic acid] | > 2000 |
| COc1c(-c2cnco2)ccc(CS(=O)(=O)c2ccccc2)c1C(=O)O [6-(Benzenesulphonylmethyl)-2-methoxy-3-(oxazol-5-yl)benzoic acid] | 200 to 2000 |
| COc1c(-n2cccn2)ccc(CS(=O)(=O)c2ccccc2)c1C(=O)O [6-(Benzenesulphonylmethyl)-2-methoxy-3-(pyrazol-1-yl)benzoic acid] | > 2000 |
| COc1c(-c2cc[nH]n2)ccc(CS(=O)(=O)c2ccccc2)c1C(=O)O [6-(Benzenesulphonylmethyl)-2-methoxy-3-(pyrazol-3-yl)benzoic acid] | > 2000 |
| COc1c(-c2nccs2)ccc(CS(=O)(=O)c2ccccc2)c1C(=O)O [6-(Benzenesulphonylmethyl)-2-methoxy-3-(thiazol-2-yl)benzoic acid] | > 2000 |
| COc1c(-c2cncs2)ccc(CS(=O)(=O)c2ccccc2)c1C(=O)O [6-(Benzenesulphonylmethyl)-2-methoxy-3-(thiazol-5-yl)benzoic acid] | 200 to 2000 |
| COc1c(-c2cccs2)ccc(CS(=O)(=O)c2ccccc2)c1C(=O)O [6-(Benzenesulphonylmethyl)-2-methoxy-3-(thien-2-yl)benzoic acid] | > 2000 |
| COc1c(C)ccc(CS(=O)(=O)c2ccccc2)c1C(=O)O [6-(Benzenesulphonylmethyl)-2-methoxy-3-methyl-benzoic acid] | 200 to 2000 |
| COc1c(-c2ccccc2)ccc(CS(=O)(=O)c2ccccc2)c1C(=O)O [6-(Benzenesulphonylmethyl)-2-methoxy-3-phenylbenzoic acid] | > 2000 |
| CCCc1ccc(CS(=O)(=O)c2ccccc2)c(C(=O)O)c1OC [6-(Benzenesulphonylmethyl)-2-methoxy-3-propyl-benzoic acid] | > 2000 |
| COc1c(-c2ccsc2)ccc(CS(=O)(=O)c2ccccc2)c1C(=O)O [6-(Benzenesulphonylmethyl)-2-methyoxy-3-(thien-3-yl)benzoic acid] | > 2000 |
| COc1c(-c2ccco2)ccc(CS(=O)(=O)c2ccccc2)c1C(=O)O [6-(Benzenesulphonylmethyl)-3-(furan-2-yl)-2-methoxy-benzoic acid] | > 2000 |
| COc1cc(CS(=O)(=O)c2ccccc2)c(C(=O)O)c(OC)c1-c1ccoc1 [6-(Benzenesulphonylmethyl)-3-(furan-3-yl)-2,4-dimethoxybenzoic acid] | 200 to 2000 |
| O=C(O)c1c(CS(=O)(=O)c2ccccc2)ccc(-c2ccoc2)c1OCCO [6-(Benzenesulphonylmethyl)-3-(furan-3-yl)-2-(2-hydroxyethoxy)benzoic acid] | < 200 |
| COCCOc1c(-c2ccoc2)ccc(CS(=O)(=O)c2ccccc2)c1C(=O)O [6-(Benzenesulphonylmethyl)-3-(furan-3-yl)-2-(2-methoxyethoxy)-benzoic acid] | > 2000 |
| CC#Cc1c(-c2ccoc2)ccc(CS(=O)(=O)c2ccccc2)c1C(=O)O [6-(Benzenesulphonylmethyl)-3-(furan-3-yl)-2-(prop-1-yn-1-yl)benzoic acid] | > 2000 |
| CNCCOc1c(-c2ccoc2)ccc(CS(=O)(=O)c2ccccc2)c1C(=O)O [6-(Benzenesulphonylmethyl)-3-(furan-3-yl)-2-[2-(methylamino)-ethoxy]benzoic acid hydrochloride] | > 2000 |
| COc1c(-c2ccoc2)ccc(CS(=O)(=O)c2ccccc2)c1C(=O)O [6-(Benzenesulphonylmethyl)-3-(furan-3-yl)-2-methoxy-benzoic acid] | < 200 |

| SMILES | IC50 [nM] |
| --- | --- |
| CNc1c(-c2ccoc2)ccc(CS(=O)(=O)c2ccccc2)c1C(=O)O [6-(Benzenesulphonylmethyl)-3-(furan-3-yl)-2-methylamino benzoic acid] | < 200 |
| COc1c(-n2ccnc2)ccc(CS(=O)(=O)c2ccccc2)c1C(=O)O [6-(Benzenesulphonylmethyl)-3-(imidazol-1-yl)-2-methoxybenzoic acid] | > 2000 |
| COc1c(-c2cnsc2)ccc(CS(=O)(=O)c2ccccc2)c1C(=O)O [6-(Benzenesulphonylmethyl)-3-(isothiazol-4-yl)-2-methoxybenzoic acid] | 200 to 2000 |
| COc1c(-c2ccon2)ccc(CS(=O)(=O)c2ccccc2)c1C(=O)O [6-(Benzenesulphonylmethyl)-3-(isoxazol-3-yl)-2-methoxybenzoic acid] | > 2000 |
| COc1c(-c2cocn2)ccc(CS(=O)(=O)c2ccccc2)c1C(=O)O [6-(Benzenesulphonylmethyl)-3-(oxazol-4-yl)-2-methoxybenzoic acid] | > 2000 |
| COc1c(Br)ccc(CS(=O)(=O)c2ccccc2)c1C(=O)O [6-(Benzenesulphonylmethyl)-3-bromo-2-methoxybenzoic acid] | 200 to 2000 |
| COc1c(C#N)ccc(CS(=O)(=O)c2ccccc2)c1C(=O)O [6-(Benzenesulphonylmethyl)-3-cyano-2-methoxy-benzoic acid] | > 2000 |
| COc1c(C2CC2)ccc(CS(=O)(=O)c2ccccc2)c1C(=O)O [6-(Benzenesulphonylmethyl)-3-cyclopropyl-2-methoxy-benzoic acid] | 200 to 2000 |
| CCc1ccc(CS(=O)(=O)c2ccccc2)c(C(=O)O)c1-c1cc[nH]n1 [6-(Benzenesulphonylmethyl)-3-ethyl-2-(1H-pyrazol-3-yl)benzoic acid] | 200 to 2000 |
| CCc1ccc(CS(=O)(=O)c2ccccc2)c(C(=O)O)c1-c1ccnn1C [6-(Benzenesulphonylmethyl)-3-ethyl-2-(2-methyl-2H-pyrazol-3-yl)-benzoic acid] | > 2000 |
| CCc1ccc(CS(=O)(=O)c2ccccc2)c(C(=O)O)c1OC [6-(Benzenesulphonylmethyl)-3-ethyl-2-methoxy-benzoic acid] | 200 to 2000 |
| COc1c(-c2ccns2)ccc(CS(=O)(=O)c2ccccc2)c1C(=O)O [6-(Benzenesulphonylmethyl-3-(isothiazol-5-yl)-2-methoxy-benzoic acid] | < 200 |
| COc1c(-c2ccoc2)ccc(CS(=O)(=O)C2C3CCC2CC3)c1C(=O)O (stereo not drawn) [6-(Bicyclo[2.2.1]heptane-7-ylsulphonylmethyl)-3-(furan-3-yl)-2-methoxybenzoic acid] | 200 to 2000 |
| COc1c(C2CCOC2)ccc(CS(=O)(=O)C2CC3CCC2CC3)c1C(=O)O (stereo not drawn) [6-(Bicyclo[2.2.2]octane-2-ylsulphonylmethyl)-2-methoxy-3-(tetrahydrofuran-3-yl)benzoic acid] | > 2000 |
| COc1c(-c2ccoc2)ccc(CS(=O)(=O)C2CC3CCC2CC3)c1C(=O)O (stereo not drawn) [6-(Bicyclo[2.2.2]octane-2-ylsulphonylmethyl)-3-(furan-3-yl)-2-methoxybenzoic acid] | > 2000 |
| COc1c(-c2ccoc2)ccc(CS(=O)(=O)C2CCCCC2)c1C(=O)O [6-(Cyclohexanesulphonylmethyl)-3-(furan-3-yl)-2-methoxybenzoic acid] | 200 to 2000 |
| O=C(O)c1c(CS(=O)(=O)c2ccccc2)ccc(-c2ccoc2)c1O [6-(benzenesulphonylmethyl)-3-(furan-3-yl)-2-hydroxybenzoic acid] | > 2000 |
| CCc1ccc(CS(=O)(=O)c2ccccc2)c(C(=O)O)c1-c1ccn(C)n1 [6-Benzenesulphonylmethyl-3-ethyl-2-(1-methyl-1H-pyrazol-3-yl)-benzoic acid] | > 2000 |
| CCN(CC)CCOc1ccccc1S(=O)(=O)Cc1ccc(-c2ccoc2)c(OC)c1C(=O)O [6-[2-(2-Diethylaminoethoxy)benzenesulphonylmethyl]-3-(furan-3-yl)-2-methoxybenzoic acid] | > 2000 |
| CCN(CC)CCNc1ccccc1S(=O)(=O)Cc1ccc(-c2ccoc2)c(OC)c1C(=O)O [6-[2-(2-Diethylaminoethylamino)benzenesulphonylmethyl]-3-(furan-3-yl)-2-methoxybenzoic acid] | 200 to 2000 |
| CCN(CC)CC1CCN1c1ccccc1S(=O)(=O)Cc1ccc(-c2ccoc2)c(OC)c1C(=O)O (stereo not drawn) [6-[2-(2-Diethylaminomethylazetidin-1-yl)-benzenesulphonylmethyl]-3-(furan-3-yl)-2-methoxybenzoic acid] | > 2000 |
| CCN(CC)CCCc1ccccc1S(=O)(=O)Cc1ccc(-c2ccoc2)c(OC)c1C(=O)O [6-[2-(3-Diethylaminopropyl)benzenesulphonylmethyl]-3-(furan-3-yl)-2-methoxybenzoic acid] | < 200 |
